Measured values reported in paper PMC5041076, “Ilex kaushue and Its Bioactive Component 3,5-Dicaffeoylquinic Acid Protected Mice from Lipopolysaccharide-Induced Acute Lung Injury” (Scientific Reports, 2016).
“Also recorded” adds a separate entry of the source. Where two headings read alike, the source gives them in different places.

Tests used:
[1] = biological target: T1, Human neutrophil elastase (Homo sapiens, UniProt P08246); assay: Serine protease enzyme inhibition assay, HNE; assay type: biochemical; conditions: for Inh % (HNE inhibition): at 30 M (so in the source), Table S3; for IC50: enzyme assay, mean ± S.E.M. (n ≥ 3), read-out: IC50 HNE; for selectivity of inhibitory effect among serine proteases: five serine proteases examined
T1 construct: purchased Enzo BML-SE284
T1 sequence (P08246 30-267): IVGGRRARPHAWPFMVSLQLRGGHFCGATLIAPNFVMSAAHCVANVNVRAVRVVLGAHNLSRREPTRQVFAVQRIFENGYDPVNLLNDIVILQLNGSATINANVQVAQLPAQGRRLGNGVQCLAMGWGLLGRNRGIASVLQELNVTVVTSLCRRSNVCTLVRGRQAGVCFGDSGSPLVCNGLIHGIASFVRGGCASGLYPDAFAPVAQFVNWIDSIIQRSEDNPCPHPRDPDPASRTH

Human cathepsin G = biological target: T2, Human cathepsin G (Homo sapiens, UniProt P08311); assay: Serine protease enzyme inhibition assay, cathepsin G; assay type: biochemical; conditions: mean ± S.E.M. (n ≥ 3)
T2 construct: purchased Enzo BML-SE283
T2 sequence (P08311 21-255): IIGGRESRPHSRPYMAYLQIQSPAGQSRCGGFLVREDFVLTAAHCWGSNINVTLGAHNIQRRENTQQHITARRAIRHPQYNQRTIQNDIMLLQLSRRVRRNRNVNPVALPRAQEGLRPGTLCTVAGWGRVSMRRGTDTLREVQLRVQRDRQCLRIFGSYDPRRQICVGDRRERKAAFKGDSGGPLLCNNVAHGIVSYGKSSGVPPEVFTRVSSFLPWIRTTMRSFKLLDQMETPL

Human proteinase 3 = biological target: T3, Human proteinase 3 (Homo sapiens, UniProt P24158); assay: Serine protease enzyme inhibition assay, proteinase 3; assay type: biochemical; conditions: mean ± S.E.M. (n ≥ 3)
T3 construct: purchased Merk 539483
T3 sequence (P24158 28-256): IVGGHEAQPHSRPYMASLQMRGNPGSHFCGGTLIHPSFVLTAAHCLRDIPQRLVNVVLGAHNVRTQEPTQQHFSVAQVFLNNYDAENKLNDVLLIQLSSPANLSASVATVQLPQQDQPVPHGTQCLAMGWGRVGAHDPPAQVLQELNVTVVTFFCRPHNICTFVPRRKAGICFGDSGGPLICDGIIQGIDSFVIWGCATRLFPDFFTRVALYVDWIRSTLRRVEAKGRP

Bovine chymotrypsin = biological target: T4, Bovine chymotrypsin (Bos taurus, UniProt P00766); assay: Serine protease enzyme inhibition assay, chymotrypsin; assay type: biochemical; conditions: mean ± S.E.M. (n ≥ 3)
T4 construct: purchased Sigma-Aldrich C4129

[2] = test system: fMLF/CB-activated neutrophils; assay: O2.- generation in fMLF/CB-activated neutrophils (ferricytochrome c reduction); assay type: cell-based, human
Procedure: (§1) All assays were performed as described previously[58],[59]. Neutrophils isolated from the blood of healthy volunteers (20–30 years old) were resuspended in a Ca^2+-free HBSS buffer (pH 7.4) at 4 °C before use. O2^.− generation was measured based on reduction of ferricytochrome c. In brief, after supplementation with 0.5 mg/ml ferricytochrome c and 1 mM Ca^2+, neutrophils were equilibrated at 37 °C for 2 min and incubated with the specified drugs for 5 min. Neutrophils were activated using 30 nM fMLF or 100 nM LTB4 for 10 min after addition of cytochalasin B (CB, 1 μg/mL) for 3 min. Changes in absorbance concomitant with reduction of ferricytochrome c at 550 nm were continuously monitored. For elastase release, neutrophils (6 × 10^5 cells/mL) were mixed with methoxysuccinyl-Ala-Ala-Pro-Val-pNA (100 μM) substrate at 37 °C for 5 min. […] Inhibition of superoxide generation and elastase release were calculated in keeping with previous reports.

[3] = test system: fMLF/CB-activated neutrophils; assay: Elastase release in fMLF/CB-activated neutrophils; assay type: cell-based; conditions: for IC50: read-out: IC50 HNE (NE activity / elastase release)
Procedure: as §1

[4] = test system: LTB4-induced human neutrophils; assay: Elastase release in LTB4-induced neutrophils; assay type: cell-based; conditions: Neutrophil, inducer LTB4, Table S2
Procedure: as §1

Src family kinases = assay: Immunoblotting of Src family kinase phosphorylation in fMLF-activated neutrophils; assay type: cell-based, human; conditions: 10 μM, 5 min before fMLF (0.1 μM) 0.5 min, Western blot; listed as 3,5-DCQA
Procedure: (§2) Neutrophils were pretreated with DMSO or 3,5-DCQA (10 μM) for 5 min before fMLF stimulation for 0.5 min at 37 °C. Cells were lysed with lysis buffer consisting of 50 mM HEPES (pH 7.4), 100 mM NaCl, 1 mM Ca^2+, 2 mM Na3VO4, 1 mM phenylmethanesulfonyl fluoride, 5% b-mercaptoethanol, 10 mM p-nitrophenyl phosphate, 1% protease inhibitor cocktail (Sigma-Aldrich) and 1% Triton X-100. Cell lysates were collected by centrifugation at 14,000 rpm for 20 min at 4 °C. After gel electrophoresis and transferring to membranes, samples were blocked with 5% nonfat milk in a mixture of Tris-buffer saline and Tween 20. Target protein was identified by the corresponding primary antibody overnight at 4 °C. Membranes were incubated with horseradish peroxidase-conjugated, secondary anti-rabbit or anti-mouse antibodies at room temperature for 1 h. After washing, enhanced chemiluminescence solution was used and protein expression was analyzed by the BioSpectrum Imaging System (UVP, Upland, CA). The quantitative ratio of target protein was normalized to total protein or GAPDH.

Vav = assay: Immunoblotting of Vav phosphorylation in fMLF-activated neutrophils; assay type: cell-based, human; conditions: 10 μM, 5 min before fMLF (0.1 μM) 0.5 min, Western blot; listed as 3,5-DCQA
Procedure: as §2

Akt = assay: Immunoblotting of Akt phosphorylation in fMLF-activated neutrophils; assay type: cell-based, human; conditions: 10 μM, 5 min before fMLF (0.1 μM) 0.5 min, Western blot; listed as 3,5-DCQA
Procedure: as §2

LPS-induced ALI in mice = assay: LPS-induced ALI in mice; assay type: in vivo, mouse
Procedure: Mice were randomly divided into nine groups (n = 6 per group): (1) Vehicle, (2) IKWE (500 mg/kg), (3) 3,5-DCQA (50 mg/kg), (4) LPS, (5) LPS + DEX (10 mg/kg), (6) LPS + IKWE (250 mg/kg), (7) LPS + IKWE (500 mg/kg), (8) LPS + 3,5-DCQA (25 mg/kg) and (9) LPS + 3,5-DCQA (50 mg/kg). Agents were dissolved in vehicle solution (PBS containing 10% Tween-80). All animals were pretreated intraperitoneally with 100 μL vehicle solution or agents, respectively, 1 h before PBS or LPS (Sigma, Escherichia coli. 055:B5) intratracheal injection (5 mg/kg in 50 μL of PBS)[26],[27]. Mice were sacrificed at 6 h post-dosage and the left lung collected for histological examination or MPO activity measurement. Lung tissue was fixed with 10% formalin before embedding with paraffin wax and routine H&E staining. MPO activity was measured as described earlier. The right lobes were prepared for W/D weight ratio determination or BALF analysis. To obtain the W/D weight ratio, wet tissues were weighed immediately after collection, dried in the oven at 80 °C for 48 h and re-weighed. For post-treatment experiments, mice treated with vehicle or 3,5-DCQA (50 mg/kg) intraperitoneally 1 h after LPS treatment.
Mice were sacrificed and hilum of the left lung sealed. BALF was collected following injection with 0.2, 0.2, 0.3, 0.3 or 0.5 mL PBS. BALF samples were combined and centrifuged at 1,000 rpm for 15 min at 4 °C. Total proteins in the supernatant fraction were determined using the protein assay dye (BIO-RAD, 500-0006) with BSA as the reference and TNF-α and IL-6 levels measured with ELISA kits (eBioscience, 88-7324-88 and 88-7064-88). Cell pellets from BALF were resuspended in 100 μL PBS and cytospun (200 g, 3 min) onto a glass microscope slide, followed by staining with Liu’s stain. Neutrophils were counted under a light microscope in five randomly selected fields (×200 magnification)[60].

[5] = after intravenous administration ref 46, 47, 49; cited from earlier work
[6] = test system: LPS-stimulated RAW 264.7 cells; set-up: method as in PMID 25975516; conditions: LPS-stimulated RAW 264.7 cells ref 45; cited from earlier work
human neutrophils = test system: human neutrophils; set-up: method as in PMID 12384183; conditions: 100 μM, human neutrophils ref 35; cited from earlier work
Human thrombin = Human thrombin (Homo sapiens, UniProt P00734); assay: Serine protease enzyme inhibition assay, thrombin
[7] = Neutrophil, fMLF/CB-activated human neutrophils
[8] = fMLF/CB-activated human neutrophils
[9] = pretreatment i.p. 1 h before LPS, 6 h
[10] = read-out: IC50 Thrombin, enzyme assay, mean ± S.E.M. (n ≥ 3)

Inh % (HNE inhibition) [1] [%]	IC50 [1] [µM]	selectivity of inhibitory effect among serine proteases [1]	IC50 (Human cathepsin G) [µM]	IC50 (Human proteinase 3) [µM]	IC50 (Bovine chymotrypsin) [µM]	IC50 [2, 7] [nM]	IC50 ([3]; Homo sapiens, Neutrophil) [µM]	IC50 [3, 8] [µM]	IC50 (Human thrombin) [µM]	IC50 [2, 8] [nM]	IC50 (Human thrombin; [10]) [µM]	Compound	other results
–	> 30	–	> 30	> 30	> 30	–	–	> 10	–	> 10000	> 30	C[C@@H]1O[C@@H](O[C@H]2[C@H](OC(=O)[C@]34CCC(C)(C)[C@@H](O)[C@H]3C3=CC[C@@H]5[C@@]6(C)CC[C@H](O[C@@H]7OC[C@H](O)[C@H](O[C@@H]8O[C@H](CO)[C@@H](O)[C@H](O)[C@H]8O)[C@H]7O[C@@H]7O[C@@H](C)[C@H](O)[C@@H](O)[C@H]7O)C(C)(C)[C@@H]6CC[C@@]5(C)[C@]3(C)CC4)O[C@H](CO)[C@@H](O)[C@@H]2O)[C@H](O)[C@H](O)[C@H]1O [Compound 14]	–
36.42 ± 2.25	> 30	–	> 30	> 30	> 30	–	–	> 10	–	1490 ± 380	> 30	O=C(/C=C/c1ccc(O)c(O)c1)O[C@H]1[C@H](O)C[C@](O)(C(=O)O)C[C@H]1OC(=O)/C=C/c1ccc(O)c(O)c1 [Compound 7, 4,5-DCQA]	–
–	24.7 ± 0.48	non-selective inhibitory effects	> 30	14.8 ± 0.59	11.4 ± 0.2	260 ± 100	0.2 ± 0.02	–	11.8 ± 2.2	–	–	CC1=C(C)C2C3=CCC4[C@@]5(C)CC[C@H](O)C(C)(C)C5CC[C@@]4(C)[C@]3(C)CC[C@@]2(C(=O)O)CC1 (stereo partly shown) [Compound 15-2, sanguisorbigenin]	efficacy relative to ursolic acid ([2]; fMLF-induced neutrophils): 5 fold; IC50 O2^.− generation [2, 8]: good inhibitory effects; IC50 HNE (NE activity / elastase release) [3, 8]: good inhibitory effects

Continued, molecule first:

Compound	Inh % (HNE inhibition) [1] [%]	IC50 [1] [µM]	selectivity of inhibitory effect among serine proteases [1]	IC50 (Human cathepsin G) [µM]	IC50 (Human proteinase 3) [µM]	IC50 (Bovine chymotrypsin) [µM]	IC50 [2, 7] [nM]	IC50 ([3]; Homo sapiens, Neutrophil) [µM]	IC50 [3, 8] [µM]	IC50 (Human thrombin) [µM]	IC50 [2, 8] [nM]	IC50 (Human thrombin; [10]) [µM]	other results
O=C(C=Cc1ccc(O)c(O)c1)OC1CC(O)(C(=O)O)CC(OC(=O)C=Cc2ccc(O)c(O)c2)C1O (stereo not shown) [Compound 6, 3,5-dicaffeoylquinic acid]	90.53 ± 0.52	1.86 ± 0.06	high selectivity for HNE	> 30	> 30	> 30	1920 ± 540	12 ± 0.6	> 10	> 30	–	–	IC50 [4]: 2900 ± 550 nM; phosphorylation of SFKs (Src family kinases): reduce phosphorylation; also recorded: inhibited the phosphorylation; phosphorylation of Vav (Vav): reduce phosphorylation; also recorded: inhibited the phosphorylation; phosphorylation of Akt (Akt): did not inhibited the phosphorylation; pathological features of ALI, post-treatment (LPS-induced ALI in mice; 50 mg/kg i.p. 1 h after LPS): significantly improved; levels of proinflammatory cytokines (TNF-α and IL-6) in BALF (LPS-induced ALI in mice; [9]): Reduced levels; lung edema (W/D weight ratio) (LPS-induced ALI in mice; [9]): improve lung edema; accumulation / infiltration of neutrophils in lung tissue (MPO activity, BALF, histology) (LPS-induced ALI in mice; pretreatment i.p. 1 h before LPS, 6 h, listed as 3,5-DCQA): suppress accumulation of neutrophils; also recorded: significantly reduced; pathological features of ALI (hemorrhage, infiltrating neutrophils, thickening of alveolar wall) (LPS-induced ALI in mice; pretreatment i.p. 1 h before LPS, IKWE 500 mg/kg, 3,5-DCQA 50 mg/kg): significantly improved; time detectable in the plasma [5]: 4 h; TNF-α and IL-6 expression [6]: able to reduce; elastase release, myeloperoxidase activity and superoxide production (human neutrophils): able to inhibit
CC1(C)[C@@H](O)CC[C@]2(C)[C@H]3C=CC4=C5[C@]6(CC[C@](C)(OC6=O)[C@@]5(C)O)CC[C@@]4(C)[C@]3(C)CC[C@@H]12 [Compound 11-1]	–	> 30	–	> 30	7.62 ± 0.32	8.06 ± 0.4	–	–	> 10	–	> 10000	> 30	–
